{"source": "patent US20150374844A1", "about": "“NOVEL PH -SWITCHABLE PEPTIDES FOR MEMBRANE INSERTION AND PORE FORMATION” (UNIVERSITY OF PENNSYLVANIA, priority 2013, published 2015)", "key": {"[1]": {"test": "siRNA co-transfection assay, cell viability", "assay_type": "cell-based", "design": "concentration or dose not given beside the values", "conditions": "co-transfection of peptide and siRNA", "description": "The protocol and siRNA reagent (target SSB gene) described in the following publication was followed: Bartz R, Fan H, Zhang J, Innocent N, Cherrin C, Beck S C, Pei Y, Momose A, Jadhav V, Tellers D M, Meng F, Crocker L S, Sepp-Lorenzino L, Barnett S F. Effective siRNA delivery and target mRNA degradation using an amphipathic peptide to facilitate pH-dependent endosomal escape. Biochem J. 2011; 435:475-87."}, "Red Blood Cells (RBCs)": {"test_system": "Red Blood Cells (RBCs)", "test": "Human red blood cell hemolysis assay (hemoglobin release)", "method": "Human Red Blood hemolysis assay was carried out as described below.\nAbout 5 ml human blood from healthy individuals were transferred into a 50 ml centrifuge tube and either re-suspended in 35 ml buffer pH 5.4 (150 mM NaCl, 20 mM MES) or pH 7.5 (150 mM NaCl, 20 mM Hepes). Red Blood Cells (RBCs) were washed 3 times with the appropriate buffer and finally re-suspended in a total of 50 ml buffer (pH 5.4 or 7.5). For the assay 175 μl of buffer solution (pH 5.4 or 7.5) was added into each well of a clear-bottom 96-well plate followed by 50 μl of re-suspended RBCs (approx. 2.5×10^7 cells) in the appropriate buffer (for RBC transfer wide bore pipet tips were used to avoid cell damage). Test PSPF peptides (New England Peptide TM) at the appropriate concentration were diluted in 25 μl PBS and then added to the cells. All steps were done with chilled buffers and on ice. The suspension was then mixed 6-8 times by pipetting with wide bore tips, the plate was covered and incubated at 37° C. for indicated time.\nAfter incubation the cells were centrifuged for 5 min at 500×g and 150 μl of the supernatant was transferred into a new 96-well clear-bottom plate. Absorbance at 541 nm was measured and hemolysis was normalized to RBCs which have been incubated in the presence of 1% Triton X-100 (100% hemolysis).\nRed blood cell (RBC) lysis assays was used to screen the functional efficacy of the PSPF peptides upon delivery (Table 5). The release of ATP, miRNA and hemoglobin has been studied at both pH 7.5 and 5.4.\nA desirable peptide should also negate membrane disruption, as assessed by leakage of proteins such as hemoglobin at both pH values. Therefore the peptides were first screened for hemolytic activity at both pH 7.5 and pH 5.4."}, "[2]": {"molecular_target": "the molecule itself", "test": "CD thermal denaturation of the hexamer, Gibbs-Helmholtz fit, pH 7.4", "method": "(§1) Furthermore, thermal denaturation by circular dichroism (CD) was used to study the thermal stability of the PSPF-EKG hexamer at multiple concentrations (2 μM, 4 μM and 20 μM), and at both pH 7.4 (FIG. 8A) and pH 5.5 (FIG. 8B). For each pH, to the curves were analyzed according to the Gibbs-Helmholtz Equation, using global least squares fitting of ΔHm, Tm and baselines. Tm was chosen as a global parameter defined with a reference concentration of 4 μM. ΔCp was also included, but over the range of experimental data examed, this parameter was not well defined."}, "[3]": {"molecular_target": "the molecule itself", "test": "size exclusion chromatography, self-association, pH 7.4 (Table 7 prints 6.6)", "method": "Size exclusion chromatography (SEC) of 100 μM PSPF-EKG and 100 μM PSPF-DKG were measured by AKTA FPLC machine (GE) using a Superdex 75 column (GE) eluted at pH 7.4 (50 mM Tris, 150 mM NaCl) and pH 5.5 (50 mM MES, 150 mM NaCl) respectively, at 25° C. Four standards were used: blue dextran (2,000,000 g/mol), carbonic anhydrase (29,000 g/mol), cytochrome C (12,400 g/mol) and aprotinin (6,500 g/mol). In order to test the effect of salt concentration upon peptide elution, the elutions of PSPF-EKG were also measured at pH 7.4 (50 mM Tris, 2M NaCl) and pH 5.5 (50 mM MES, […]), respectively.\nSize exclusion chromatography—The association state of the PSPF peptide PSPF-EKG was initially investigated by size exclusion chromatography (SEC) using a Superdex 75 column (GE Healthcare) eluted at pH 7.4 (150 mM NaCl, 50 mM Tris) and pH 5.5 (150 mM NaCl, 50 mM MES) respectively. In addition, PSPF-DKG was also investigated to determine the effect of substituting Asp for Glu on the stability of the water-soluble bundle at each pH. To determine the approximate oligomerization states, four standards were used, shown by blue eluting peaks in FIG. 4: blue dextran (2,000,000 g/mol), carbonic anhydrase (29,000 g/mol), cytochrome C (12,400 g/mol) and aprotinin (6,500 g/mol)."}, "[4]": {"molecular_target": "the molecule itself", "test": "CD thermal denaturation of the hexamer, Gibbs-Helmholtz fit, pH 5.5", "method": "as §1"}, "[5]": {"conditions": "pH 5.4, compared to triton-x-100"}, "[6]": {"conditions": "pH 7.5, compared to triton-x-100"}}, "note": "No end group written: not given here.", "data": [{"molecule": "WSELAKGLSELAKGLSELAKGLSELAKG [PSPF-EKG, WSELAKG LSELAKG LSELAKG LSELAKG]", "values": [{"measurement": "viability", "setting": "[1]", "value": 102, "unit": "%"}]}, {"molecule": "WSDLAQALSDLAQALSDLAQALSDLAQA [PSPF-DQA, WSDLAQA LSDLAQA LSDLAQA LSDLAQA]", "values": [{"measurement": "Hemoglobin Release", "setting": "Red Blood Cells (RBCs); [5]", "value": "none"}, {"measurement": "Hemoglobin Release", "setting": "Red Blood Cells (RBCs); [6]", "value": "none"}, {"measurement": "viability", "setting": "[1]", "value": 100, "unit": "%"}]}, {"molecule": "WSDLAKALSDLAKALSDLAKALSDLAKA [PSPF-DKA, WSDLAKA LSDLAKA LSDLAKA LSDLAKA]", "values": [{"measurement": "Hemoglobin Release", "setting": "Red Blood Cells (RBCs); [5]", "value": "none"}, {"measurement": "Hemoglobin Release", "setting": "Red Blood Cells (RBCs); [6]", "value": "none"}, {"measurement": "viability", "setting": "[1]", "value": 101, "unit": "%"}]}, {"molecule": "WSHLAQGLSHLAQGLSHLAQGLSHLAQG [PSPF-HQG, WSHLAQG LSHLAQG LSHLAQG LSHLAQG]", "values": [{"measurement": "Hemoglobin Release", "setting": "Red Blood Cells (RBCs); pH 5.4", "value": "none"}, {"measurement": "Hemoglobin Release", "setting": "Red Blood Cells (RBCs); pH 7.5", "value": "none"}, {"measurement": "viability", "setting": "[1]", "value": 104, "unit": "%"}]}, {"molecule": "WSHLAKGLSHLAKGLSHLAKGLSHLAKG [PSPF-HKG, WSHLAKG LSHLAKG LSHLAKG LSHLAKG]", "values": [{"measurement": "Hemoglobin Release", "setting": "Red Blood Cells (RBCs); pH 5.4", "value": "none"}, {"measurement": "Hemoglobin Release", "setting": "Red Blood Cells (RBCs); pH 7.5", "value": "none"}, {"measurement": "viability", "setting": "[1]", "value": 102, "unit": "%"}]}, {"molecule": "WSELAQALSELAQALSELAQALSELAQA [PSPF-EQA, WSELAQA LSELAQA LSELAQA LSELAQA]", "values": [{"measurement": "Hemoglobin Release", "setting": "Red Blood Cells (RBCs); pH 5.4", "value": "none"}, {"measurement": "Hemoglobin Release", "setting": "Red Blood Cells (RBCs); pH 7.5", "value": "none"}, {"measurement": "viability", "setting": "[1]", "value": 103, "unit": "%"}]}, {"molecule": "WSDLAKGLSDLAKGLSDLAKGLSDLAKG [PSPF-DKG, WSDLAKG LSDLAKG LSDLAKG LSDLAKG]", "values": [{"measurement": "Hemoglobin Release", "setting": "Red Blood Cells (RBCs); [5]", "value": "none"}, {"measurement": "Hemoglobin Release", "setting": "Red Blood Cells (RBCs); [6]", "value": "none"}, {"measurement": "viability", "setting": "[1]", "value": 104, "unit": "%"}]}, {"molecule": "WSELAKALSELAKALSELAKALSELAKA [PSPF-EKA, WSELAKA LSELAKA LSELAKA LSELAKA]", "values": [{"measurement": "Hemoglobin Release", "setting": "Red Blood Cells (RBCs); pH 5.4", "value": "none"}, {"measurement": "Hemoglobin Release", "setting": "Red Blood Cells (RBCs); pH 7.5", "value": "none"}, {"measurement": "viability", "setting": "[1]", "value": 105, "unit": "%"}]}, {"molecule": "WSHLAQALSHLAQALSHLAQALSHLAQA [PSPF-HQA, WSHLAQA LSHLAQA LSHLAQA LSHLAQA]", "values": [{"measurement": "Hemoglobin Release", "setting": "Red Blood Cells (RBCs); pH 5.4", "value": "none"}, {"measurement": "Hemoglobin Release", "setting": "Red Blood Cells (RBCs); pH 7.5", "value": "none"}, {"measurement": "viability", "setting": "[1]", "value": 105, "unit": "%"}]}, {"molecule": "WSHLAKALSHLAKALSHLAKALSHLAKA [PSPF-HKA, WSHLAKA LSHLAKA LSHLAKA LSHLAKA]", "values": [{"measurement": "Hemoglobin Release", "setting": "Red Blood Cells (RBCs); pH 5.4", "value": "none"}, {"measurement": "Hemoglobin Release", "setting": "Red Blood Cells (RBCs); pH 7.5", "value": "none"}, {"measurement": "viability", "setting": "[1]", "value": 97, "unit": "%"}]}, {"molecule": "WSDLAQGLSDLAQGLSDLAQGLSDLAQG [PSPF-DQG, WSDLAQG LSDLAQG LSDLAQG LSDLAQG]", "values": [{"measurement": "Hemoglobin Release", "setting": "Red Blood Cells (RBCs); [5]", "value": "none"}, {"measurement": "Hemoglobin Release", "setting": "Red Blood Cells (RBCs); [6]", "value": "none"}, {"measurement": "viability", "setting": "[1]", "value": 98, "unit": "%"}]}, {"molecule": "WSELAQGLSELAQGLSELAQGLSELAQG [PSPF-EQG, WSELAQG LSELAQG LSELAQG LSELAQG]", "values": [{"measurement": "Hemoglobin Release", "setting": "Red Blood Cells (RBCs); pH 5.4", "value": "none"}, {"measurement": "Hemoglobin Release", "setting": "Red Blood Cells (RBCs); pH 7.5", "value": "none"}, {"measurement": "viability", "setting": "[1]", "value": 105, "unit": "%"}]}, {"molecule": "WSELAKGLSELAKGLSELAKGLSELAKG", "note": "[PSPF-EKG]", "values": [{"measurement": "[PSPF-EKG] at 50% fold and 300 K", "setting": "[2]", "value": 0.14, "unit": "µM"}, {"measurement": "apparent molecular weight, fold of calculated molecular weight", "setting": "[3]", "value": 6.5, "unit": "fold"}, {"measurement": "[PSPF-EKG] at 50% fold and 300 K", "setting": "[4]", "value": 0.31, "unit": "µM"}]}]}
